Drawing on ChEMBL document CHEMBL2074572, “Limited distribution of new quinolone antibacterial agents into brain caused by multiple efflux transporters at the blood-brain barrier” (J Pharmacol Exp Ther, 2000), this text covers Activity for two molecules.

The structures appear in SMILES notation.

Series [1] addresses Multidrug resistance-associated protein 1 (Homo sapiens, UniProt P33527). Kind of series: TP_TRANSPORTER: decrease in intracellular accumulation in HL60 and HL60/ADM cells. It is filed as functional, cell-based.
The target of series [2] is P-glycoprotein 1 and 3 (MDR1a/MDR1b) (Mus musculus, UniProt P21447+P06795). Kind of series: TP_TRANSPORTER: increase in brain concentration in mdr1a/1b(-/-) mouse. It is filed as functional, organism-based. Conditions: in vivo.

Multidrug resistance-associated protein 1, sequence (P33527 whole entry): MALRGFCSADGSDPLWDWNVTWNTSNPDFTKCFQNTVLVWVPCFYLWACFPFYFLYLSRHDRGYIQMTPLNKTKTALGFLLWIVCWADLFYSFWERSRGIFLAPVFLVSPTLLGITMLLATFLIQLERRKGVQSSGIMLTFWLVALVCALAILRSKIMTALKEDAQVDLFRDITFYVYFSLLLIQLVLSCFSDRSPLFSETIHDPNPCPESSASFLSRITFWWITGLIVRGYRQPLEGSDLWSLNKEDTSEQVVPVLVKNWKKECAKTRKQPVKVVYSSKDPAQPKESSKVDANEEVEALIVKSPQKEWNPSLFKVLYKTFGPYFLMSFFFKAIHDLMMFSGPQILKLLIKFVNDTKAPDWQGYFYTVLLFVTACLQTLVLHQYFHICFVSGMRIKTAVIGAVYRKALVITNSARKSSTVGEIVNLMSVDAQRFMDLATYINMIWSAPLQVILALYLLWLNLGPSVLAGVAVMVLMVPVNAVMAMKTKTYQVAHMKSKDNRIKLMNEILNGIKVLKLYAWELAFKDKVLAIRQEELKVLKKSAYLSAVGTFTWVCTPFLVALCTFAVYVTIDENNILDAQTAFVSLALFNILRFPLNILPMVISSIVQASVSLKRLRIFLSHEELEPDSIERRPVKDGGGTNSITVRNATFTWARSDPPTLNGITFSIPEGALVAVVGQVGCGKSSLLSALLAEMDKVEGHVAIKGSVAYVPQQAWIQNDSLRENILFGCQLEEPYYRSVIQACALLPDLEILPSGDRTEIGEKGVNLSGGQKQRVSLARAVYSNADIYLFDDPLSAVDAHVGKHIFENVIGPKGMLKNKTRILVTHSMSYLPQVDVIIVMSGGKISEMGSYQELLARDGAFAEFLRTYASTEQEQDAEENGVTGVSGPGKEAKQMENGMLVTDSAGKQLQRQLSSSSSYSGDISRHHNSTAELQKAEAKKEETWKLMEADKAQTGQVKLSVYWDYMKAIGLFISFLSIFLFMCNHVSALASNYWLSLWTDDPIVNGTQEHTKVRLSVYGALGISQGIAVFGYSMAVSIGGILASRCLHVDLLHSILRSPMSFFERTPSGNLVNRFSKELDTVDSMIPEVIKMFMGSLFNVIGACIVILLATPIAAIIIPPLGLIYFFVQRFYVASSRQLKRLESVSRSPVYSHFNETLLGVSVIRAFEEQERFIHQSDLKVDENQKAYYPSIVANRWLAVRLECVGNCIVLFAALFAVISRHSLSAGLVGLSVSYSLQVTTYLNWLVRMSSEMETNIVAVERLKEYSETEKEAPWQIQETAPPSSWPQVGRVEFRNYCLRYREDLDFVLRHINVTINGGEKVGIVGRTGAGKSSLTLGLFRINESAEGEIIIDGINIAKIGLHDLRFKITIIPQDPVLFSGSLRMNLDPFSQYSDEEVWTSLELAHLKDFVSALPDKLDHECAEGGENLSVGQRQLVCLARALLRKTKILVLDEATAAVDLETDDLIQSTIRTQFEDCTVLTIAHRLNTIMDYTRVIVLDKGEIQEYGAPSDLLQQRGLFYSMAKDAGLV

As for `Cc1c(F)c(N2CCNC(C)C2)cc2c1c(=O)c(C(=O)O)cn2C1CC1` (configuration not stated) [GREPAFLOXACIN], the Activity entry in series [1] was “substrate [+]”.

With `C[C@@H]1CN(c2c(F)c(N)c3c(=O)c(C(=O)O)cn(C4CC4)c3c2F)C[C@H](C)N1` [SPARFLOXACIN], in series [2], the Activity result is “substrate [+]”.
